According to patent US20120022164A1, “EXTERNAL PREPARATION COMPRISING PROSTAGLANDIN DERIVATIVE” (TAISHO PHARMACEUTICAL CO., LTD., priority 2006, published 2012):
Like-named read-outs stand apart in the source and are kept apart here.

How the values were obtained:
Solubility in water = type: physicochemical; details: water at 25° C.
[1] = Solubility of compound of formula II in cyclodextrin aqueous solutions (Test Example 7); type: physicochemical; details: for solubility at 24 h: 25 °C, aqueous with cosolvent or surfactant or cyclodextrin, thermodynamic from solid
Protocol: A complex containing the compound of formula II and the cyclodextrin can be obtained by grinding a block prepared by freeze-drying a solution which is obtained by dissolving the both into water. In order to examine the minimum content (formulation amount) of cyclodextrin required to obtain the complex, solubility of the compound of formula II in cyclodextrin aqueous solutions which have different concentrations of and different types of cyclodextrin was measured. That is, cyclodextrin aqueous solutions of various concentrations were prepared by dissolving α-cyclodextrin, β-cyclodextrin, γ-cyclodextrin or hydroxypropyl-β-cyclodextrin into water. After each solution was poured into a test tube, the compound of formula II was added excessively. The test tube was shaken in a water bath at 25° C. for 24 hours, and a concentration of the dissolved compound of formula II was quantified with high-performance liquid chromatography (Equipment: LC10VP series manufactured by SHIMADZU CORPORATION, Column: Develosil ODS-HG-5 manufactured by Nomura Chemical Co., Ltd., Inner diameter: 4.6 mm, Length: 15 cm, Column temperature: 40° C., Mobile phase: mixed solution of water/acetonitrile/phosphoric acid (550:450:1), Flow rate: 1 mL/min, Detection wavelength: 200 nm). With this, solubility of the compound of formula II and molar ratio of the compound of formula II and each type of cyclodextrin were calculated.
Note that, for calculation of the molar ratios, molecular weights of the compound of formula II, α-cyclodextrin, β-cyclodextrin, γ-cyclodextrin and hydroxypropyl-β-cyclodextrin were set to 420.99, 972.84, 1134.98, 1297.12 and 1506.69, respectively.

[2] = cited from earlier work; for Solubility in water: cyclodextrins, water at 25° C.

## O=C(O)CSCCCC[C@@H]1[C@@H](C#C[C@@H](O)C2CCCCC2)[C@H](O)C[C@H]1Cl [compound of formula II]
Solubility in water
  solubility: ~60 µg/mL
[1]; hydroxypropyl-β-cyclodextrin 0.25% by mass in water, 25° C., * completely dissolved, actual solubility assumed much higher
  Solubility of compound of formula II (mg/mL): > 0.10* mg/mL
[1]; hydroxypropyl-β-cyclodextrin 5% by mass in water, 25° C., * completely dissolved, actual solubility assumed much higher
  Solubility of compound of formula II (mg/mL): > 2.0* mg/mL
[1]; hydroxypropyl-β-cyclodextrin 10% by mass in water, 25° C., * completely dissolved, actual solubility assumed much higher
  Solubility of compound of formula II (mg/mL): > 3.0* mg/mL
[1]; α-cyclodextrin aqueous solution, α-cyclodextrin 1% by mass in water, 25° C., 24 hours, read-out: Solubility of compound of formula II
  solubility at 24 h: 110 µg/mL
[1]; α-cyclodextrin aqueous solution, α-cyclodextrin 2% by mass in water, 25° C., 24 hours, read-out: Solubility of compound of formula II
  solubility at 24 h: 170 µg/mL
[1]; α-cyclodextrin aqueous solution, α-cyclodextrin 5% by mass in water, 25° C., 24 hours, read-out: Solubility of compound of formula II
  solubility at 24 h: 500 µg/mL
[1]; α-cyclodextrin aqueous solution, α-cyclodextrin 10% by mass in water, 25° C., 24 hours, read-out: Solubility of compound of formula II
  solubility at 24 h: 1220 µg/mL
[1]; α-cyclodextrin aqueous solution, α-cyclodextrin 12% by mass in aqueous solution, 25° C. (FIG. 1), read-out: Solubility of the compound of formula II
  solubility at 24 h: 1520 µg/mL
[1]; β-cyclodextrin aqueous solution, β-cyclodextrin 1% by mass in water, 25° C., 24 hours, read-out: Solubility of compound of formula II
  solubility at 24 h: < 100 µg/mL
[1]; β-cyclodextrin aqueous solution, β-cyclodextrin 2% by mass in water, 25° C., * completely dissolved, actual solubility assumed much higher, read-out: Solubility of compound of formula II
  solubility at 24 h: > 200 µg/mL
[1]; γ-cyclodextrin 5% by mass
  Compound of formula II: cyclodextrin (molar ratio): 0.1396
[1]; γ-cyclodextrin aqueous solution, γ-cyclodextrin 0.1% by mass in water, 25° C., * completely dissolved, actual solubility assumed much higher, read-out: Solubility of compound of formula II
  solubility at 24 h: > 50 µg/mL
[1]; γ-cyclodextrin aqueous solution, γ-cyclodextrin 1% by mass in water, 25° C., 24 hours, read-out: Solubility of compound of formula II
  solubility at 24 h: 170 µg/mL
[1]; γ-cyclodextrin aqueous solution, γ-cyclodextrin 5% by mass in water, 25° C., 24 hours, read-out: Solubility of compound of formula II
  solubility at 24 h: 120 µg/mL

## OC[C@H]1O[C@@H]2O[C@H]3[C@H](O)[C@@H](O)[C@@H](O[C@H]4[C@H](O)[C@@H](O)[C@@H](O[C@H]5[C@H](O)[C@@H](O)[C@@H](O[C@H]6[C@H](O)[C@@H](O)[C@@H](O[C@H]7[C@H](O)[C@@H](O)[C@@H](O[C@H]1[C@H](O)[C@H]2O)O[C@@H]7CO)O[C@@H]6CO)O[C@@H]5CO)O[C@@H]4CO)O[C@@H]3CO [α-cyclodextrin]
[2]
  Solubility in water: approximately 14%
[2]; water
  Solubility of α-cyclodextrin in water: approximately 14 % by mass

## OC[C@H]1O[C@@H]2O[C@H]3[C@H](O)[C@@H](O)[C@@H](O[C@H]4[C@H](O)[C@@H](O)[C@@H](O[C@H]5[C@H](O)[C@@H](O)[C@@H](O[C@H]6[C@H](O)[C@@H](O)[C@@H](O[C@H]7[C@H](O)[C@@H](O)[C@@H](O[C@H]8[C@H](O)[C@@H](O)[C@@H](O[C@H]1[C@H](O)[C@H]2O)O[C@@H]8CO)O[C@@H]7CO)O[C@@H]6CO)O[C@@H]5CO)O[C@@H]4CO)O[C@@H]3CO [β-cyclodextrin]
[2]
  Solubility in water: approximately 2%

## hydroxypropyl-β-cyclodextrin
[2]
  Solubility in water: approximately 22%
